From patent US11554171B2, “Compounds and methods for the targeted degradation of bromodomain-containing proteins” (Arvinas Operations, Inc., priority 2015, dated 2023)

Test system: c-myc in 22RV-1 cells
Experiment: Human c-myc ELISA assay
Assay type: cell-based
Conditions: Homo sapiens; for Emax: 22Rv1, 18 h, read-out: Degradation of BRD4: Maximum inhibition (%) c-Myc ELISA in 22RV1 cells; for DC50: 22Rv1, read-out: Degradation of BRD4: DC50 (uM) c-Myc ELISA in 22RV1 cells
Outline: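 22RV-1 cells treated 18 h with 8-point 1:3 compound dilutions (final top 300 nM or 1 μM, 0.1% DMSO). Cells lysed in RIPA buffer with protease/phosphatase inhibitors, and c-myc protein in cleared lysate quantified by ELISA against a standard curve. DC50 reported for c-myc suppression.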

Structure (SMILES) | DC50 [µM] | Emax [%]
Cc1ncsc1-c1ccc([C@H](C)NC(=O)[C@@H]2C[C@@H](O)CN2C(=O)[C@@H](NC(=O)COc2cccc(OCCNC(=O)C[C@@H]3N=C(c4ccc(Cl)cc4)c4c(sc(C)c4C)-n4c(C)nnc43)c2)C(C)(C)C)cc1 [Example 127, (2S,4R)-1-[(2S)-2-{2-[3-(2-{2-[(9S)-7-(4-chlorophenyl)-4,5,13-trimethyl-3-thia-1,8,11,12-tetraazatricyclo[8.3.0.0^2,^6]trideca-2(6),4,7,10,12-pentaen-9-yl]acetamido}ethoxy)phenoxy]acetamido}-3,3-dimethylbutanoyl]-4-hydroxy-N-[(1S)-1-[4-(4-methyl-1,3-thiazol-5-yl)phenyl]ethyl]pyrrolidine-2-carboxamide] | < 0.01 | 99
Cc1ncsc1-c1ccc([C@H](C)NC(=O)[C@@H]2C[C@@H](O)CN2C(=O)[C@@H](NC(=O)Cc2ccc(N3CC[C@@H](NC(=O)C[C@@H]4N=C(c5ccc(Cl)cc5)c5c(sc(C)c5C)-n5c(C)nnc54)C3)cc2)C(C)(C)C)cc1 [Example 230, (2S,4R)-1-[(2S)-2-(2-{4-[(3R)-3-{2-[(9S)-7-(4-chlorophenyl)-4,5,13-trimethyl-3-thia-1,8,11,12-tetraazatricyclo[8.3.0.0^2,^6]trideca-2(6),4,7,10,12-pentaen-9-yl]acetamido}pyrrolidin-1-yl]phenyl}acetamido)-3,3-dimethylbutanoyl]-4-hydroxy-N-[(1S)-1-[4-(4-methyl-1,3-thiazol-5-yl)phenyl]ethyl]pyrrolidine-2-carboxamide] | < 0.01 | 100
Cc1sc2c(c1C)C(c1ccc(Cl)cc1)=N[C@@H](CC(=O)N[C@H]1C[C@@H](Oc3cc(-c4cnn([C@@H](C(=O)N5C[C@H](O)C[C@H]5C(=O)N[C@@H](C)c5ccc(-n6ccnc6C)cc5)C(C)C)c4)ccn3)C1)c1nnc(C)n1-2 [Example 287] | > 1 | 17.3
Cc1ncsc1-c1ccc(CNC(=O)[C@@H]2C[C@@H](O)CN2C(=O)[C@@H](NC(=O)COCCOCCOCCOCCOc2ccc(NC(=O)C[C@@H]3N=C(c4ccc(Cl)cc4)c4c(sc(C)c4C)-n4c(C)nnc43)cc2)C(C)(C)C)cc1 [Example 12] | 0.01 to 0.1 | 100
Cc1ncsc1-c1ccc([C@H](C)NC(=O)[C@@H]2C[C@@H](O)CN2C(=O)[C@@H](NC(=O)Cc2ccc(O[C@H]3C[C@@H](NC(=O)C[C@@H]4N=C(c5ccc(Cl)cc5)c5c(sc(C)c5C)-n5c(C)nnc54)C3)cc2)C(C)(C)C)cc1 [Example 185, (2S,4R)-1-[(2S)-3,3-dimethyl-2-(2-{4-[(1s,35)-3-{2-[(9S)-7-(4-chlorophenyl)-4,5,13-trimethyl-3-thia-1,8,11,12-tetraatetraazatricyclo[8.3.0.0^2,^6]trideca-2(6),4,7,10,12-pentaen-9-yl]acetamido}cyclobutoxy]phenyl}acetamido)butanoyl]-4-hydroxy-N-[(1S)-1-[4-(4-methyl-1,3-thiazol-5-yl)phenyl]ethyl]pyrrolidine-2-carboxamide] | < 0.01 | 99.5
Cc1ncsc1-c1ccc([C@H](C)NC(=O)[C@@H]2C[C@@H](O)CN2C(=O)[C@@H](NC(=O)CN2CCC(O[C@H]3C[C@H](NC(=O)c4ccc5c6ncc(-c7c(C)noc7C)cc6n([C@@H](c6ccccc6)C6CCOCC6)c5c4)C3)CC2)C(C)(C)C)cc1 [Example 366, (2S,4R)-1-[(2S)-3,3-dimethyl-2-(2-{4-[(1,3-trans)-3-[3-(dimethyl-1,2-oxazol-4-yl)-5-[(R)-oxan-4-yl(phenyl)methyl]-5H-pyrido[3,2-b]indole-7-amido]cyclobutoxy]piperidin-1-yl}acetamido)butanoyl]-4-hydroxy-N-[(1S)-1-[4-(4-methyl-1,3-thiazol-5-yl)phenyl]ethyl]pyrrolidine-2-carboxamide] | < 0.01 | 100
Cc1ncsc1-c1ccc(CNC(=O)[C@@H]2C[C@@H](O)CN2C(=O)[C@@H](NC(=O)COCCOCCOCCCCOCCOCCNC(=O)C[C@@H]2N=C(c3ccc(Cl)cc3)c3c(sc(C)c3C)-n3c(C)nnc32)C(C)(C)C)cc1 [Example 9] | 0.1 to 1 | 96.4
Cc1ncsc1-c1ccc(CNC(=O)[C@@H]2C[C@@H](O)CN2C(=O)[C@@H](c2cnn(CCCOCCNC(=O)C[C@@H]3N=C(c4ccc(Cl)cc4)c4c(sc(C)c4C)-n4c(C)nnc43)c2)C(C)C)cc1 [Example 144] | 0.1 to 1 | 73
Cc1ncsc1-c1ccc(CNC(=O)[C@@H]2C[C@@H](O)CN2C(=O)[C@@H](NC(=O)COCCOCCOCCCCOc2ccc3c(c2)c2c(C(N)=O)cc(-c4c(C)noc4C)cc2n3Cc2ccccc2)C(C)(C)C)cc1 [Example 152] | 0.01 to 0.1 | 95
Cc1ncsc1-c1ccc(CNC(=O)[C@@H]2C[C@@H](O)CN2C(=O)[C@@H](NC(=O)COCCCOCCCOc2ccc(NC(=O)C[C@@H]3N=C(c4ccc(Cl)cc4)c4c(sc(C)c4C)-n4c(C)nnc43)c(F)c2)C(C)(C)C)cc1 [Example 20] | 0.01 to 0.1 | 94
Cc1ncsc1-c1ccc(CNC(=O)[C@@H]2C[C@@H](O)CN2C(=O)[C@@H](NC(=O)COCCCOCCCCCOc2ccc3c(c2)c2c(C(N)=O)cc(-c4c(C)noc4C)cc2n3Cc2ccccc2)C(C)(C)C)cc1 [Example 143, 9-benzyl-2-(dimethyl-1,2-oxazol-4-yl)-6-({5-[3-({[(2S)-1-[(2S,4R)-4-hydroxy-2-({[4-(4-methyl-1,3-thiazol-5-yl)phenyl]methyl}carbamoyl)pyrrolidin-1-yl]-3,3-dimethyl-1-oxobutan-2-yl]carbamoyl}methoxy)propoxy]pentyl}oxy)-9H-carbazole-4-carboxamide] | < 0.01 | 100
Cc1ncsc1-c1ccc([C@H](C)NC(=O)[C@@H]2C[C@@H](O)CN2C(=O)[C@@H](NC(=O)COc2ccnc(N3CCN(C(=O)C[C@@H]4N=C(c5ccc(Cl)cc5)c5c(sc(C)c5C)-n5c(C)nnc54)CC3)c2)C(C)(C)C)cc1 [Example 327, (2S,4R)-1-[(2S)-2-(2-{[2-(4-{2-[(9S)-7-(4-chlorophenyl)-4,5,13-trimethyl-3-thia-1,8,11,12-tetraazatricyclo[8.3.0.0^2,^6]trideca-2(6),4,7,10,12-pentaen-9-yl]acetyl}piperazin-1-yl)pyridin-4-yl]oxy}acetamido)-3,3-dimethylbutanoyl]-4-hydroxy-N-[(1S)-1-[4-(4-methyl-1,3-thiazol-5-yl)phenyl]ethyl]pyrrolidine-2-carboxamide] | < 0.01 | 96
Cc1ncsc1-c1ccc(CNC(=O)[C@@H]2C[C@@H](O)CN2C(=O)[C@@H](C(C)C)n2cc(-c3ccnc(O[C@@H](C)CNC(=O)C[C@@H]4N=C(c5ccc(Cl)cc5)c5c(sc(C)c5C)-n5c(C)nnc54)c3)cn2)cc1 [Example 179] | > 1 | 13.9

Further lines, with some results ahead:

DC50 [µM] | Structure (SMILES) | Emax [%]
0.1 to 1 | Cc1ncsc1-c1ccc(CNC(=O)[C@@H]2C[C@@H](O)CN2C(=O)[C@@H](NC(=O)Cc2ccc(N3CC[C@H](NC(=O)C[C@@H]4N=C(c5ccc(Cl)cc5)c5c(sc(C)c5C)-n5c(C)nnc54)C3)cn2)C(C)(C)C)cc1 [Example 93] | 74.2
> 1 | Cc1ncsc1-c1ccc(CNC(=O)[C@@H]2C[C@@H](O)CN2C(=O)[C@H](C(C)C)N2Cc3ccccc3C2=O)c(OCCOCCOCCCOCCOCCNC(=O)C[C@@H]2N=C(c3ccc(Cl)cc3)c3c(sc(C)c3C)-n3c(C)nnc32)c1 [Example 5] | 25
0.01 to 0.1 | Cc1ncsc1-c1ccc([C@H](C)NC(=O)[C@@H]2C[C@@H](O)CN2C(=O)[C@@H](NC(=O)CN2C[C@H](C)N(C3CC4(C3)CN(C(=O)C[C@@H]3N=C(c5ccc(Cl)cc5)c5c(sc(C)c5C)-n5c(C)nnc53)C4)C[C@H]2C)C(C)(C)C)cc1 [Example 359] | > 90
< 0.01 | Cc1ncoc1-c1ccc([C@H](C)NC(=O)[C@@H]2C[C@@H](O)CN2C(=O)[C@@H](NC(=O)COc2ccc(O[C@H]3C[C@@H](NC(=O)C[C@@H]4N=C(c5ccc(Cl)cc5)c5c(sc(C)c5C)-n5c(C)nnc54)C3)nc2)C(C)(C)C)cc1 [Example 278] | 95.4
0.01 to 0.1 | Cc1ncsc1-c1ccc([C@H](C)NC(=O)[C@@H]2C[C@@H](O)CN2C(=O)C(C(C)C)n2cc(-c3cc(F)cc(O[C@H]4C[C@@H](NC(=O)C[C@@H]5N=C(c6ccc(Cl)cc6)c6c(sc(C)c6C)-n6c(C)nnc65)C4)c3)cn2)cc1 (stereo partly drawn) [Example 214] | 97
> 1 | Cc1ncsc1-c1ccc([C@H](C)NC(=O)[C@@H]2C[C@@H](O)CN2C(=O)[C@@H](C(C)C)n2cc(-c3ccnc(O[C@H]4C[C@@H](NC(=O)C[C@@H]5N=C(c6ccc(Cl)cc6)c6c(sc(C)c6C)-n6c(C)nnc65)C4)n3)cn2)cc1 [Example 300] | 24
< 0.01 | Cc1ncsc1-c1ccc([C@H](C)NC(=O)[C@@H]2C[C@@H](O)CN2C(=O)[C@@H](n2cc(-c3ccnc(O[C@H]4C[C@@H](NC(=O)C[C@@H]5N=C(c6ccc(Cl)cc6)c6c(sc(C)c6C)-n6c(C)nnc65)C4)c3)cn2)C(C)(C)C)cc1 [Example 240] | 97
> 1 | Cc1ncsc1-c1ccc([C@H](C)NC(=O)[C@@H]2C[C@@H](O)CN2C(=O)[C@@H](NC(=O)COC[C@@H](O)CN2CCN(C(=O)C[C@@H]3N=C(c4ccc(Cl)cc4)c4c(sc(C)c4C)-n4c(C)nnc43)CC2)C(C)(C)C)cc1 [Example 329] | < 5
< 0.01 | Cc1ncsc1-c1ccc(CNC(=O)[C@@H]2C[C@@H](O)CN2C(=O)C(c2cc(OCCCCCNC(=O)C[C@@H]3N=C(c4ccc(Cl)cc4)c4c(sc(C)c4C)-n4c(C)nnc43)no2)C(C)C)cc1 (stereo partly drawn) [Example 90] | 100
> 1 | Cc1ncsc1-c1ccc(CNC(=O)[C@@H]2C[C@@H](O)CN2C(=O)[C@@H](NC(=O)COCCCOCCCOc2ccc(NC(=O)C[C@@H]3N=C(c4ccc(Cl)cc4)c4c(sc(C)c4C)-n4c(C(C)C)nnc43)cc2)C(C)(C)C)cc1 [Example 54] | 63
< 0.01 | Cc1ncsc1-c1ccc([C@H](C)NC(=O)[C@@H]2C[C@@H](O)CN2C(=O)[C@@H](NC(=O)COCCCOC2CN(C(=O)C[C@@H]3N=C(c4ccc(Cl)cc4)c4c(sc(C)c4C)-n4c(C)nnc43)C2)C(C)(C)C)cc1 [Example 182] | 100
